In patent publication US7375124B2, “Use of α-phenylthiocarboxylic and α-phenyloxycarboxylic acids with serum-glucose-lowering and serum-lipid-lowering activity” (Sigma-Tau Industrie Farmaceutiche Riunite S.p.A., priority 2002, dated 2008):

Key:
[1] = target: T1, PPARγ (Mus musculus, UniProt P37238); assay: Transactivation assay mediated by PPARγ in NIH-3T3 cells (CAT reporter); format: cell-based
T1 construct: expressed in transfected cells; host or cells: NIH-3T3 (mouse embryonal fibroblasts)
T1 sequence (P37238 1-475 isoform P37238-2): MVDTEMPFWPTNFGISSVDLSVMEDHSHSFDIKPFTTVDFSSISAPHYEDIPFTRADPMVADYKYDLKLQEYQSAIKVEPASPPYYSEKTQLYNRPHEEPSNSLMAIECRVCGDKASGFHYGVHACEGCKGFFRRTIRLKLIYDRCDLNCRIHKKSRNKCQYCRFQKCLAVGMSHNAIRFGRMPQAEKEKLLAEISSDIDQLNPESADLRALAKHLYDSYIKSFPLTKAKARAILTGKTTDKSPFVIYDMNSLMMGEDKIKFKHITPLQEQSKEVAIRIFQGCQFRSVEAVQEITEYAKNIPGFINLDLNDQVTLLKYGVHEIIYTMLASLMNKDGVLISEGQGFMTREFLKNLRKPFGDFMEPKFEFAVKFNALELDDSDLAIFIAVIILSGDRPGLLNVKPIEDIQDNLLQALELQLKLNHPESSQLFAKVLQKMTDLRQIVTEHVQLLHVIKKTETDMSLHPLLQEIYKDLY
Text: A transactivation assay specific for PPARγ thus requires the simultaneous presence of the following in the preselected cell line: • a) a sufficient amount of PPARγ; • b) a sufficient amount of the 9 cis-retinoic acid receptor (RXR); • c) a chimeric plasmid containing the reporter gene controlled by a PPRE, located upstream of a viral heterologous promoter. In our case the reporter gene is chloramphenicol-acetyl transferase (CAT).
In the transactivation assay used, the preselected cells are transfected with the expression vector pSG5 Stop-mPPARg1 which allows the synthesis of the PPARγ receptor by the transfected cell. Simultaneously, a plasmid reporter (pBLCAT2-PPRE) is transfected which contains a peroxisome proliferator response element (PPRE) isolated by the gene promoter for acyl-CoA oxidase, upstream of the heterologous promoter of viral thymidine kinase (TK) fused with the reporter gene CAT. Since the endogenous cell levels of the RXR receptor are sufficiently high, it is not necessary to transfect an expression vector specific for RXR as well. […] Therefore, any increase in CAT levels will be the result of increased gene transcription dependent upon the dimerisation of PPARγ with RXR and upon the heterodimer bond formed with the peroxisome proliferator response element. Together with the expression vector and the reporter vector the cells are also transfected with the plasmid pCH110 which provides the internal control for the efficiency of transfection and the normalisation of the results
A cell line of mouse embryonal fibroblasts (NIH-3T3) was used [Hogan J. C. et al., Biochem Biophys Res Commun. 287 (2), 484-92 (2001)]. The cells were transfected with the reporter plasmid, the expression plasmid coding for the PPARγ receptor and the control vector pCH110. The cells were exposed to increasing concentrations of the study compounds and CAT activity was evaluated. Untreated cells were used as controls.
Mouse embryonal fibroblasts (NIH-3T3) were cultured according to the usual cell culture techniques, at 37° C. in a 5% v/v carbon dioxide atmosphere using as the growth medium DMEM (Dulbecco's modified Eagle's medium) modified with 3.7 g/l of sodium bicarbonate, 4 mM L-glutamine, 4.5 g/l of glucose, 1 mM sodium pyruvate and 10% v/v of calf serum, in the presence of streptomycin 100 μg/ml and penicillin 100 U/ml final.
The cells were co-transfected using the transfection reagent FuGENE6 (Roche), already described in the previous example. Twenty-four hours prior to transfection the cells were plated at a density of 8.0×10^4 cells/well in 12-well plates and maintained at 37° C. in a 5% v/v CO2 atmosphere. The culture medium, devoid of serum, was replaced 2 hours before transfection, and then the cells were treated with the transfection reagent FuGENE6, as described in the previous example. After 5 hours, the transfection medium was replaced by 1 ml of culture medium complete with serum and antibiotics in the presence or absence of the molecules to be tested at 3 different concentrations (2, 20 and 100 μM). Rosiglitazone, a known ligand of PPARγ, was used as the positive reference compound.
The cell protein extracts were prepared and the CAT activity assay was conducted exactly as described in the previous example.
As an internal control for the normalisation of the CAT activity in relation to the transfection efficiency, β-galactosidase activity coded for by the corresponding gene in the co-transfected plasmid pCH110 was used.
β-galatosidase activity was measured exactly as described in the previous example.
For the normalisation of the CAT assay results in relation to […] activity the formula described in the previous example was used.

[2] = test system: C57BL/KsJ db/db mouse; assay: Antidiabetic and serum-lipid-lowering activity in the db/db mouse (Experiments I and II); details: Experiment II; for Glucose: blood
Text: Plasma levels of glucose, insulin, triglycerides, cholesterol, free fatty acids and urea were checked for a well-matched distribution of mice in the treatment groups.
At the start of treatment the body weights of the mice were checked and arrangements were made for monitoring water and feed consumption.
In the course of the experiment, serum glucose levels, oral glucose tolerance test (OGTT) findings, a number of lipid status parameters and weight gain were monitored.

[3] = after 12 days' treatment, postabsorption, 7.5 hours after last treatment, mean ± S.E.

- Activation of the gene-reporter CAT as a percentage of the reference compound (rosiglitazone 2 μM = 100%) ([1]; 2 μM): 28.6%
- Activation of the gene-reporter CAT as a percentage of the reference compound (rosiglitazone 2 μM = 100%) ([1]; 20 μM): 61.2%
- Activation of the gene-reporter CAT as a percentage of the reference compound (rosiglitazone 2 μM = 100%) ([1]; 100 μM): 114.3%
- melting point: 105 to 106 °C
- Variation % (final b.w.) vs control ([2]; after 12 days' treatment): +5%
SMILES: CC(C)(Sc1cccc(OCCc2ccc(Cl)cc2)c1)C(=O)O [Example 2, 2-[3-[2-(4-chlorophenyl)ethoxy]phenylthio]-2-methylpropanoic acid]
- Variation % (glucose) vs control ([2]; after 9 days' treatment, postabsorption, 8 hours after last treatment): −66%
- Variation % (AUC glucose at OGTT) vs control ([2]; after 11 days' treatment, OGTT glucose 3 g/kg): −43%
- AUC glucose at OGTT ([2]; after 11 days' treatment, OGTT glucose 3 g/kg, fasting 18 hours, 5 hours after last treatment, mean ± S.E.): 24517 ± 2261 a.u.
- Variation % (glucose) vs control ([2]; after 11 days' treatment, fasting 18 hours, 5 hours after last treatment): −48%
- Variation % (HDL-cholesterol) vs control ([2]; after 12 days' treatment): +19%
- Variation % (triglycerides) vs control ([2]; after 12 days' treatment): −44%
- Glucose (plasma) ([2]; after 12 days' treatment, postabsorption (fasting 9 a.m. to 4.30 p.m.), 7.5 hours after last treatment, mean ± S.E.): 263 ± 30 mg/dL
- Variation % (plasma glucose) vs control ([2]; after 12 days' treatment, postabsorption, 7.5 hours after last treatment): −54%
- HDL-choles. (plasma) [2, 3]: 102.5 ± 4.7Δ mg/dl
- Triglycerides (plasma) [2, 3]: 48.6 ± 2.5 mg/dL
- Glucose ([2]; after 9 days' treatment, postabsorption (fasting 9 a.m. to 5 p.m.), 8 hours after last treatment, mean ± S.E.): 155 ± 21 mg/dL
- Glucose ([2]; after 11 days' treatment, fasting 18 hours, 5 hours after last treatment, mean ± S.E.): 128 ± 8 mg/dL
- Final b.w. ([2]; final body weight after 12 days' treatment, postabsorption condition, mean ± S.E.): 39.4 ± 0.9 g
- Variation % (initial b.w.) vs control ([2]; initial body weight): −3%
- Initial b.w. ([2]; initial body weight, postabsorption condition, mean ± S.E.): 37.8 ± 0.5 g
